Source: ChEMBL document CHEMBL1122993, “3-Alkyl-3-hydroxyglutaric acids: a new class of hypocholesterolemic HMG CoA reductase inhibitors. 1” (J Med Chem, 1985)

T1: 3-hydroxy-3-methylglutaryl-coenzyme A reductase (Rattus norvegicus) (UniProt P51639)
T1 sequence (whole entry): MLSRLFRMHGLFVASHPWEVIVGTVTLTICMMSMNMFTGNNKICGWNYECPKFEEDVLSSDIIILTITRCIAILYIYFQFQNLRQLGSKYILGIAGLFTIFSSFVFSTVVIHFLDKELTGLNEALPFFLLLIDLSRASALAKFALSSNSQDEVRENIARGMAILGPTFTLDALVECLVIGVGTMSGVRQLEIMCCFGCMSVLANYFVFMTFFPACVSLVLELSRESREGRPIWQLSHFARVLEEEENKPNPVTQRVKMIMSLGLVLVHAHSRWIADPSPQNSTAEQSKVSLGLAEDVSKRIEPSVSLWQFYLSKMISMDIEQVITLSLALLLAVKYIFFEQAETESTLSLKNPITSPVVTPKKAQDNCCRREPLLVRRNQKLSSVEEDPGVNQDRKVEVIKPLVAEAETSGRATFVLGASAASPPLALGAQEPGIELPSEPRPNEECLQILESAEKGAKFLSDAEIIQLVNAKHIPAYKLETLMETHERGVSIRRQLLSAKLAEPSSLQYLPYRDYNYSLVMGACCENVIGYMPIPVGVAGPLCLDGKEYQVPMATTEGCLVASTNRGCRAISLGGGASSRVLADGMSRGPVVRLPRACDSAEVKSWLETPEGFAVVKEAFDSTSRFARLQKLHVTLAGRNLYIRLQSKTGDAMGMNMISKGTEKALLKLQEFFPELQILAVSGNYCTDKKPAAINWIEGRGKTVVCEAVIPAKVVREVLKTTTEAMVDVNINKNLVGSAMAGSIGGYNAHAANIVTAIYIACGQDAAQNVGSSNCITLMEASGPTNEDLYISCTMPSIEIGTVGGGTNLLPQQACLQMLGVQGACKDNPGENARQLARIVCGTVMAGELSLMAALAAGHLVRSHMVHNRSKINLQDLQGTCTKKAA

T2: 3-hydroxy-3-methylglutaryl-coenzyme A reductase (Rattus norvegicus, UniProt P51639)
T2 sequence (P51639 whole entry): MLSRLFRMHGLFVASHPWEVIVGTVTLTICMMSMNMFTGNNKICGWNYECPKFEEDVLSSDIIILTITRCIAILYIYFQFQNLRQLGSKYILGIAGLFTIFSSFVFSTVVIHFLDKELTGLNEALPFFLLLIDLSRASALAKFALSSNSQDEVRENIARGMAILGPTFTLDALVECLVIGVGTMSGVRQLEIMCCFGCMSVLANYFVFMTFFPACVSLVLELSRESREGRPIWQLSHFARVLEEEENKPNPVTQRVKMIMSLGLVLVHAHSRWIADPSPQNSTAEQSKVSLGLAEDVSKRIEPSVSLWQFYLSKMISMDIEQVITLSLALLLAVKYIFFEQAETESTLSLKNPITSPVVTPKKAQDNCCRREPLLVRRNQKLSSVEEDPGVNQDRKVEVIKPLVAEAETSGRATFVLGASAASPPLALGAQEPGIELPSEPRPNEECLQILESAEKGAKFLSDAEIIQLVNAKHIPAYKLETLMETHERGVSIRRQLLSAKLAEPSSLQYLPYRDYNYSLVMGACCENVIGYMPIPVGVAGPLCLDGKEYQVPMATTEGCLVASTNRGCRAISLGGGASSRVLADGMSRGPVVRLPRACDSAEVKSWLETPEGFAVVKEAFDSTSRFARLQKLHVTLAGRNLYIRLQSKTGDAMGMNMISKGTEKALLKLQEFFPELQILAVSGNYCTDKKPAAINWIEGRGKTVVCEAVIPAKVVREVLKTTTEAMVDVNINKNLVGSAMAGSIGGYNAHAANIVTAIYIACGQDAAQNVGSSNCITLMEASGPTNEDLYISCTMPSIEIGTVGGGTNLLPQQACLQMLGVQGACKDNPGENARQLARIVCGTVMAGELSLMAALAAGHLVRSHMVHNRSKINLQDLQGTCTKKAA


How the values were obtained:
[1] = target: T1, 3-hydroxy-3-methylglutaryl-coenzyme A reductase (Rattus norvegicus); experiment: In vitro inhibition of rat liver HMG-CoA reductase at concentration of 10e-3 M
Rattus norvegicus [2] = experiment: Percent reduction of HMGR activity in diazasterol-treated rat at dose 100 mg/kg by intragastric administration (p<0.05); assay type: functional
Rattus norvegicus [3] = experiment: Percent reduction of HMGR activity in diazasterol-treated rat at dose 20 mg/kg by intragastric administration (p<0.05); assay type: functional
[4] = target: T2, 3-hydroxy-3-methylglutaryl-coenzyme A reductase; experiment: Inhibition of HMG-CoA reductase from rat liver
Rattus norvegicus [5] = experiment: Percent reduction of HMGR activity in diazasterol-treated rat at dose 50 mg/kg by intragastric administration (p<0.05); assay type: functional
Rattus norvegicus [6] = experiment: Percent reduction of Serum Cholesterol in Triton-treated rat at dose 100 mg/kg by intragastric administration (p<0.01); assay type: functional
Rattus norvegicus [7] = experiment: Percent reduction of Serum Cholesterol in Triton-treated rat at dose 300 mg/kg by intragastric administration (p<0.01); assay type: functional
Rattus norvegicus [8] = experiment: Percent reduction of Serum Cholesterol in Triton-treated rat at dose 200 mg/kg by intragastric administration (p<0.01); assay type: functional
Rattus norvegicus [9] = experiment: Percent reduction of Serum Cholesterol in Triton-treated rat at dose 50 mg/kg by intragastric administration; assay type: functional
Rattus norvegicus [10] = experiment: Percent reduction of Serum Cholesterol in Triton-treated rat at dose 80 mg/kg by intragastric administration; assay type: functional
Rattus norvegicus [11] = experiment: Percent reduction of HMGR activity in diazasterol-treated rat at dose 10 mg/kg by intragastric administration; assay type: functional
[12] = substrate: CCCCCCCCCCCCCCCC(O)(CC(=O)O)CC(=O)O
Description: Competitive inhibition of HMG-CoA reductase

Row | Molecule | inhibition [1] [%] | also measured
1 | CCCCCCCCCCCCCCCC(O)(CC(=O)O)CC(=O)O | 99 | Reduction (Rattus norvegicus [2]): 40%; Reduction (Rattus norvegicus [3]): 27%; IC50 [4]: 50 µM; Reduction (Rattus norvegicus [5]): 31%; Reduction (Rattus norvegicus [6]): 4%; Reduction (Rattus norvegicus [7]): 22%; Reduction (Rattus norvegicus [8]): 17%
2 | CCCCCCCCCCCCCCCC(O)(CC(=O)O)CC(=O)OCCN(C)C (stereo not given) | 0 | –
3 | CCCCCCCCCCC1(O)CCOC(=O)C1 (stereo not given) | 57 | –
4 | CCCCCCC(O)(CC(=O)O)CC(=O)O | 5 | –
5 | CCCCCCCCCCC(O)(CCO)CCO | 0 | –
6 | CCCCCCCCCCCCCCC/C(=C\C(=O)O)CC(=O)O | 0 | –
7 | CC1(O)CC(=O)NC(=O)C1 | 50 | –
8 | CCCCCCCCCCCCCCCC(O)(CC(=O)OCC)CC(=O)OCC | – | Reduction (Rattus norvegicus [8]): 3%
9 | CC[C@H](C)C(=O)O[C@H]1CCC=C2C=C[C@H](C)[C@H](CC[C@@H]3C[C@@H](O)CC(=O)O3)[C@H]21 [MEVASTATIN] | – | Reduction (Rattus norvegicus [9]): 17%; Reduction (Rattus norvegicus [10]): 28%; Reduction (Rattus norvegicus [11]): 60%
10 | CCCCCCCCCCCCCCCC(O)(CC(=O)OC)CC(=O)OC | 1 | Reduction (Rattus norvegicus [6]): 4%; Reduction (Rattus norvegicus [7]): 2%; Reduction (Rattus norvegicus [8]): 4%
11 | 3-hydroxy-3-methylglutaryl-coenzyme A reductase (Rattus norvegicus), P51639 (protein) MLSRLFRMHGLFVASHPWEVIVGTVTLTICMMSMNMFTGNNKICGWNYECPKFEEDVLSSDIIILTITRCIAILYIYFQFQNLRQLGSKYILGIAGLFTIFSSFVFSTVVIHFLDKELTGLNEALPFFLLLIDLSRASALAKFALSSNSQDEVRENIARGMAILGPTFTLDALVECLVIGVGTMSGVRQLEIMCCFGCMSVLANYFVFMTFFPACVSLVLELSRESREGRPIWQLSHFARVLEEEENKPNPVTQRVKMIMSLGLVLVHAHSRWIADPSPQNSTAEQSKVSLGLAEDVSKRIEPSVSLWQFYLSKMISMDIEQVITLSLALLLAVKYIFFEQAETESTLSLKNPITSPVVTPKKAQDNCCRREPLLVRRNQKLSSVEEDPGVNQDRKVEVIKPLVAEAETSGRATFVLGASAASPPLALGAQEPGIELPSEPRPNEECLQILESAEKGAKFLSDAEIIQLVNAKHIPAYKLETLMETHERGVSIRRQLLSAKLAEPSSLQYLPYRDYNYSLVMGACCENVIGYMPIPVGVAGPLCLDGKEYQVPMATTEGCLVASTNRGCRAISLGGGASSRVLADGMSRGPVVRLPRACDSAEVKSWLETPEGFAVVKEAFDSTSRFARLQKLHVTLAGRNLYIRLQSKTGDAMGMNMISKGTEKALLKLQEFFPELQILAVSGNYCTDKKPAAINWIEGRGKTVVCEAVIPAKVVREVLKTTTEAMVDVNINKNLVGSAMAGSIGGYNAHAANIVTAIYIACGQDAAQNVGSSNCITLMEASGPTNEDLYISCTMPSIEIGTVGGGTNLLPQQACLQMLGVQGACKDNPGENARQLARIVCGTVMAGELSLMAALAAGHLVRSHMVHNRSKINLQDLQGTCTKKAA | – | Km [12]: 8 µM

The next lines start with results.

Row | inhibition [1] [%] | Molecule | also measured
12 | 0 | CC1(O)CC(=O)OC(=O)C1 | –
13 | 0 | CCCCCCCCCCC(O)(CC(=O)OCC)CC(=O)OCC | –
14 | 29 | CCC(O)(CC(=O)O)CC(=O)O | –
15 | 86 | CCCCCCCCCCCCCCCCCCCC(O)(CC(=O)O)CC(=O)O | IC50 [4]: 350 µM
16 | 9 | CCCCCCCCCCCCCCCC1(OC(C)=O)CC(=O)OC(=O)C1 | –
17 | 0 | CCOC(=O)CC(C)(O)CC(=O)OCC | –
18 | 0 | CCCCCCCCCCCCCCCC(O)(CCO)CCO | –
19 | 0 | COC(=O)CC(C)(O)CC(N)=O (stereo not given) | –
20 | 10 | CC(C)C(O)(CC(=O)O)CC(=O)O | –
21 | 37 | CCCC(O)(CC(=O)O)CC(=O)O | –
22 | 0 | CC(O)(CC(=O)O)CC(=O)O | –
